These results are taken from US7384933B2, “Derivatives of 2-hydroxytetrahydrofuran and their use as medicaments” (priority 2003, dated 2008).

Turning to `CC(C)C[C@H](NC(=O)COc1ccc2c(c1)Nc1ccccc1S2)C(=O)N[C@@H](CC(C)C)C(=O)N[C@H]1CCOC1O` (stereo partly drawn) [Example 40, N-[(10H-phenothiazin-2-yloxy)acetyl]-L-leucyl-N^1-[(3S)-2-hydroxytetrahydrofuran-3-yl]-L-leucinamide], the melting point (as a rule, the temperature of the solid-liquid transition) fell in the range of 141.5 to 142 °C.

For `CC(C)C[C@H](NC(=O)c1ccc2c(c1)Nc1ccccc1S2)C(=O)N[C@@H](CC(C)C)C(=O)N[C@H]1CCOC1O` (stereo partly drawn) [Example 8, N-(10H-phenothiazin-2-ylcarbonyl)leucyl-N^1-[(3S)-2-hydroxytetrahydrofuran-3-yl]-L-leucinamide], the melting point was in the range of 144 to 144.5 °C.

Compound `CC(C)C[C@H](NC(=O)[C@H](COC(C)(C)C)NC(=O)Cc1ccc2c(c1)Nc1ccccc1S2)C(=O)N[C@H]1CCOC1O` (stereo partly drawn) [Example 17, O-(tert-butyl)-N-(10H-phenothiazin-2-ylacetyl)-L-seryl-N^1-[(3S)-2-hydroxytetrahydrofuran-3-yl]-L-leucinamide] registered a melting point of 135 to 136 °C.

The compound `CC[C@H](NC(=O)COc1ccc2c(c1)Nc1ccccc1S2)C(=O)N[C@@H](CC(C)C)C(=O)N[C@H]1CCOC1OC` (stereo partly drawn) gave a melting point of 164 to 165 °C.

With `CCC[C@H](NC(=O)COc1ccc2c(c1)Nc1ccccc1S2)C(=O)N[C@@H](CC(C)C)C(=O)N[C@H]1CCOC1O` (stereo partly drawn) [Example 49, N-[(10H-phenothiazin-2-yloxy)acetyl]-L-norvalyl-N^1-[(3S)-2-hydroxytetrahydrofuran-3-yl]-L-leucinamide], the melting point fell in the range of 195 to 196 °C.

Consider `CC(C)C[C@H](NC(=O)[C@H](CCCCNC(=O)OCc1ccccc1)NC(=O)c1ccc2c(c1)Nc1ccccc1S2)C(=O)N[C@H]1CCOC1O` (stereo partly drawn) [Example 9, N 6-[(benzyloxy)carbonyl]-N^2-(10H-phenothiazin-2-ylcarbonyl)lysyl-N^1-[(3S)-2-hydroxytetrahydrofuran-3-yl]-L-leucinamide], for which the melting point lay within 109 to 109.5 °C.

`CC(C)C[C@H](NC(=O)[C@H](C)NC(=O)COc1ccc2c(c1)Nc1ccccc1S2)C(=O)N[C@H]1CCOC1O` (stereo partly drawn) [Example 42, N-[(10H-phenothiazin-2-yloxy)acetyl]-L-alanyl-N^1-[(3S)-2-hydroxytetrahydrofuran-3-yl]-L-leucinamide] came in with a melting point of 144 to 146 °C.

Turning to `CC(C)[C@H](NC(=O)CNC(=O)COc1ccc2c(c1)Nc1ccccc1S2)C(=O)N[C@H]1CCOC1O` (stereo partly drawn) [Example 55, N-[(10H-phenothiazin-2-yloxy)acetyl]glycyl-N^1-[(3S)-2-hydroxytetrahydrofuran-3-yl]-L-valinamide], the melting point is 200 to 201 °C.

On to `CC(C)C[C@H](NC(=O)[C@@H]1CCCN1C(=O)c1ccc2c(c1)Nc1ccccc1S2)C(=O)N[C@H]1CCOC1O` (stereo partly drawn) [Example 10, 1-(10H-phenothiazin-2-ylcarbonyl)-L-prolyl-N^1-[(3S)-2-hydroxytetrahydrofuran-3-yl]-L-leucinamide], for which the melting point is 144.5 to 145 °C.

In turn, `CC(C)C[C@H](NC(=O)[C@H](CO)NC(=O)COc1ccc2c(c1)Nc1ccccc1S2)C(=O)N[C@H]1CCOC1O` (stereo partly drawn) [Example 50, N-[(10H-phenothiazin-2-yloxy)acetyl]-L-seryl-N^1-[(3S)-2-hydroxytetrahydrofuran-3-yl]-L-leucinamide] had a melting point of 128 to 130 °C.

In the case of `COC1OCC[C@@H]1NC(=O)[C@H](CC(C)C)NC(=O)[C@@H](NC(=O)COc1ccc2c(c1)Nc1ccccc1S2)C(C)(C)C` (stereo partly drawn), the melting point was 152 to 153 °C.

In turn, `COC1OCC[C@@H]1NC(=O)[C@H](CC(C)C)NC(=O)[C@H](CCCCNC(=O)OCc1ccccc1)NC(=O)c1ccc2c(c1)Nc1ccccc1S2` (stereo partly drawn) returned a melting point of 102 to 103 °C.

`CC(C)C[C@H](NC(=O)[C@@H](NC(=O)COc1ccc2c(c1)Nc1ccccc1S2)[C@@H](C)O)C(=O)N[C@H]1CCOC1O` (stereo partly drawn) [Example 51, N-[(10H-phenothiazin-2-yloxy)acetyl]-L-threonyl-N^1-[(3S)-2-hydroxytetrahydrofuran-3-yl]-L-leucinamide]: the melting point fell in the range of 195 to 196 °C.

As to `COC1OCC[C@@H]1NC(=O)[C@H](CC(C)C)NC(=O)[C@H](NC(=O)COc1ccc2c(c1)Nc1ccccc1S2)C(C)C` (stereo partly drawn), the melting point is 204 to 206 °C.

Take `COC1OCC[C@@H]1NC(=O)[C@H](CC(C)C)NC(=O)[C@@H]1CCCN1C(=O)c1ccc2c(c1)Nc1ccccc1S2` (stereo partly drawn): the melting point was in the range of 243 to 243.5 °C.

As to `CC(C)C[C@H](NC(=O)[C@@H](NC(=O)COc1ccc2c(c1)Nc1ccccc1S2)C(C)(C)C)C(=O)N[C@H]1CCOC1O` (stereo partly drawn) [Example 47, 3-methyl-N-[(10H-phenothiazin-2-yloxy)acetyl]-L-valyl-N^1-[(3S)-2-hydroxytetrahydrofuran-3-yl]-L-leucinamide], the melting point was 157 to 159 °C.

In the case of `C=CC(NC(=O)COc1ccc2c(c1)Nc1ccccc1S2)C(=O)NC(CC(C)C)C(=O)NC1CCOC1O` [Example 53, N^1-[(3S)-2-hydroxytetrahydrofuran-3-yl]-N^2-((2S)-2-{[(10H-phenothiazin-2-yloxy)-acetyl]amino}goal-3-enoyl)-L-leucinamide], the melting point lay within 159 to 161 °C.

`CC(C)C[C@H](NC(=O)C(C)(C)NC(=O)COc1ccc2c(c1)Nc1ccccc1S2)C(=O)N[C@H]1CCOC1O` (stereo partly drawn) [Example 54] returned a melting point of 138 to 140 °C.

Turning to `CC(C)C[C@H](NC(=O)[C@H](NC(=O)COc1ccc2c(c1)Nc1ccccc1S2)C(C)C)C(=O)N[C@H]1CCOC1O` (stereo partly drawn) [Example 46, N-[(10H-phenothiazin-2-yloxy)acetyl]-D-valyl-N^1-[(3S)-2-hydroxytetrahydrofuran-3-yl]-L-leucinamide], the melting point fell in the range of 145 to 146 °C.

With `CC[C@H](NC(=O)COc1ccc2c(c1)Nc1ccccc1S2)C(=O)N(C(=O)[C@@H](N)CC(C)C)[C@H]1CCOC1O` (stereo partly drawn) [Example 48, N^1-[(3S)-2-hydroxytetrahydrofuran-3-yl]-N^1-((2S)-2-{[(10H-phenothiazin-2-yloxy)acetyl]amino}butanoyl)-L-leucinamide], the melting point was in the range of 160 to 161 °C.

In turn, `CC(C)C[C@H](NC(=O)CCNC(=O)COc1ccc2c(c1)Nc1ccccc1S2)C(=O)N[C@H]1CCOC1O` (stereo partly drawn) [Example 44, N-[(10H-phenothiazin-2-yloxy)acetyl]-β-alanyl-N^1-[(3S)-2-hydroxytetrahydrofuran-3-yl]-L-leucinamide] had a melting point of 161 to 162 °C.

The compound `O=C(COc1ccc2c(c1)Nc1ccccc1S2)NCC(=O)N[C@@H](CC1CCCCC1)C(=O)N[C@H]1CCOC1O` (stereo partly drawn) [Example 56, N-[(10H-phenothiazin-2-yloxy)acetyl]glycyl-3-cyclohexyl-N^1-[(3S)-2-hydroxytetrahydrofuran-3-yl]-L-alaninamide] returned a melting point of 212 to 215 °C.

In turn, `COC1OCC[C@@H]1NC(=O)[C@H](CC(C)C)NC(=O)[C@H](C)NC(=O)COc1ccc2c(c1)Nc1ccccc1S2` (stereo partly drawn) displayed a melting point of 195 to 196 °C.

`CC(C)C[C@H](NC(=O)Cc1ccc2c(c1)Nc1ccccc1S2)C(=O)N[C@@H](CC(C)C)C(=O)N[C@H]1CCOC1O` (stereo partly drawn) [Example 16, N-(10H-phenothiazin-2-ylacetyl)-L-leucyl-N^1-[(3S)-2-hydroxytetrahydrofuran-3-yl]-L-leucinamide] displayed a melting point of 168 to 168.5 °C.

`NC(=O)[C@H](Cc1ccccc1)N(C(=O)CNC(=O)COc1ccc2c(c1)Nc1ccccc1S2)[C@H]1CCOC1O` (stereo partly drawn) [Example 57, N-[(10H-phenothiazin-2-yloxy)acetyl]glycyl-N^1-[(3S)-2-hydroxytetrahydrofuran-3-yl]-L-phenylalaninamide] returned a melting point of 207 to 208 °C.

In turn, `COC1OCC[C@@H]1NC(=O)[C@H](CC(C)C)NC(=O)[C@@H](NC(=O)COc1ccc2c(c1)Nc1ccccc1S2)C(C)C` (stereo partly drawn) displayed a melting point of 240 to 241 °C.

In the case of `CC(C)C[C@H](NC(=O)CNC(=O)COc1ccc2c(c1)Nc1ccccc1S2)C(=O)N[C@H]1CCOC1O` (stereo partly drawn) [Example 41, N-[(10H-phenothiazin-2-yloxy)acetyl]-glycyl-N^1-[(3S)-2-hydroxytetrahydrofuran-3-yl]-L-leucinamide], the melting point was in the range of 184 to 186 °C.

In turn, `CC(C)C[C@H](NC(=O)[C@@H](NC(=O)COc1ccc2c(c1)Nc1ccccc1S2)C(C)C)C(=O)N[C@H]1CCOC1O` (stereo partly drawn) [Example 43, N-[(10H-phenothiazin-2-yloxy)acetyl]-L-valyl-N^1-[(3S)-2-hydroxytetrahydrofuran-3-yl]-L-leucinamide] came in with a melting point of 205 to 206 °C.

In turn, `COC1OCC[C@@H]1N(C(=O)[C@@H](NC(=O)COc1ccc2c(c1)Nc1ccccc1S2)c1ccccc1)C(=O)[C@@H](N)CC(C)C` (stereo partly drawn) displayed a melting point of 215 to 217 °C.

Regarding `C[C@H](NC(=O)Cc1ccc2c(c1)Nc1ccccc1S2)C(=O)N[C@@H](CC1CCCCC1)C(=O)N[C@H]1CCOC1O` (stereo partly drawn) [Example 18, N-(10H-phenothiazin-2-ylacetyl)-L-alanyl-3-cyclohexyl-N^1-[(3S)-2-hydroxytetrahydrofuran-3-yl]-L-alaninamide], the melting point was in the range of 215 to 217 °C.

In the case of `CC(C)C[C@H](NC(=O)CNC(=O)c1ccc2c(c1)Nc1ccccc1S2)C(=O)N[C@H]1CCOC1O` (stereo partly drawn) [Example 7, N-(10H-phenothiazin-2-ylcarbonyl)glycyl-N^1-[(3S)-2-hydroxytetrahydrofuran-3-yl]-L-leucinamide], the melting point was in the range of 126 to 126.5 °C.

`CC(C)C[C@H](NC(=O)CN(C)C(=O)COc1ccc2c(c1)Nc1ccccc1S2)C(=O)N[C@H]1CCOC1O` (stereo partly drawn) [Example 45, N-methyl-N-[(10H-phenothiazin-2-yloxy)acetyl]glycyl-N^1-[(3S)-2-hydroxytetrahydrofuran-3-yl]-L-leucinamide] returned a melting point of 137 to 138 °C.

Regarding `COC1OCC[C@@H]1NC(=O)[C@H](CC(C)C)NC(=O)C(C)(C)NC(=O)COc1ccc2c(c1)Nc1ccccc1S2` (stereo partly drawn), the melting point lay in the range of 119 to 120 °C.

Turning to `COC1OCC[C@@H]1NC(=O)[C@H](CC(C)C)NC(=O)[C@@H](NC(=O)COc1ccc2c(c1)Nc1ccccc1S2)[C@@H](C)O` (stereo partly drawn), the melting point was 92 to 93 °C.

Take `COC1OCC[C@@H]1NC(=O)[C@H](CC(C)C)NC(=O)CNC(=O)COc1ccc2c(c1)Nc1ccccc1S2` (stereo partly drawn): the melting point is 181 to 182 °C.

In turn, `CCC[C@H](NC(=O)COc1ccc2c(c1)Nc1ccccc1S2)C(=O)N[C@@H](CC(C)C)C(=O)N[C@H]1CCOC1OC` (stereo partly drawn) yielded a melting point of 225 to 226 °C.
